Structures can show the parent of a compound that is named as a salt. Values belong to the compound of their own block, whether it stands above or below them.
Legend:
[1] = in vivo; settings: male
Procedure: Test system: Healthy Beagle dog weighing 10-12 kg (age 10 months), males were used for the study. Crossover design was adopted for the experiments wherein 03 dogs were used in the study for oral and intravenous administration. The animals were housed stainless steel cage provided with a hopper to hold pellet feed and a separate water hopper. Temperature and humidity was maintained at 23±5° C. and 30-70%, respectively. The illumination was controlled to give a sequence of 12 h light and 12 h dark cycle. All the animals were adapted to the experimental conditions for at least 5 days prior to dosing. All animals were provided with Pedigree™ standard pellet feed, except for 10 to 12 h before treatment and 4 h after the drug administration. Water was provided ad libidum.
Formulation and drug administration: 251.02 mg of test item was transferred in to a clean mortar. Test item was ground uniformly using pestle. 1.235 ml of Tween 80 was added and the material was mixed. A small quantity of 0.5% (w/v) methylcellulose in water was added and the mixture was triturated. 0.5% methyl cellulose was added to make a final volume of 190 ml. Finally the above formulation was transferred to a pre-labeled beaker and sonicated for five minutes. Suspension was dosed under stirring conditions by placing on a magnetic stirrer.
The dose formulation of LA-1.choline was administered by oral gavage using a feeding gavage tube. The required volume of dose formulation (5 ml/kg body weight) was draw up into a graduated syringe. The dog was properly restrained with the help of another person so as to restrict movement. The feeding tube was inserted slowly in the mouth through the space between cheek and the teeth towards esophagus to the stomach. Proper placement of tube was confirmed by dipping the outside end of tube in a container with water and looking for air bubbles. Absence of air bubbles confirmed the location of tube in the stomach. The required dose volume of LA-1.choline suspension was slowly administered through the feeding tube. Air was pushed through at the end to ensure empting of the tube. The tube was slowly taken out and discarded.
Intravenous drug formulation: Accurately weighed 27.49 mg of test item was transferred in to the clean tube. A volume of 0.417 mL DMSO was added and mixed until the test dissolves completely. A volume 0.417 mL of Solutol:alcohol (1:1, v/v) was added and mixed, to this, 7.496 mL of normal saline was added and vortexed. Finally, the above formulation was used for dosing.
The required volume of dose formulation (0.2 ml/kg body weight) of LA-1.choline was drawn up into a graduated syringe. Air bubbles were removed from the syringe before dosing. The dog was restrained in the standing position. The upper portion of injection site of cephalic vein was compressed and the needle of the butterfly vein catheter sized 22G was slowly inserted in the vein. Once blood reached the end of the catheter tube, it was connected to the syringe. The dose formulation was immediately injected slowly. At the end of administration, approximately 0.5 mL of normal saline was injected via catheter to ensure the required dose volume was administrated. Last, the needle was removed.
Sample collection: Post-dosing ˜1.5 ml of blood sample from each dog for the following time points 0.25, 0.5, 1, 1.5, 2, 3, 5, 8, 10 and 24 h was collected from the jugular vein into K2EDTA containing pre-labeled vacutainer centrifuge tubes. Plasma was obtained by centrifuging blood samples at 2500 g for 10 min. under refrigeration (2-4° C.) within 0.5 h of sampling. The obtained plasma samples were transferred into pre-labeled microcentrifuge tubes (approximately ˜300 μl) and stored at or below −70±10° C. The sample labels include details such as study number, test item code and dose group and/or day of sampling, animal number, time point.
Extraction procedure: The plasma separated from the whole blood was used for bio-analysis.

[2] = in vivo; settings: C57BL/6, mouse
Procedure: A mouse melanoma tumor cell line, B16-F10, was used for developing a subcutaneous tumor model. 0.1×10^6 cells were injected subcutaneously in the right flank region of the animal. When the tumors reached ˜45 mm^3 the animals were randomized into various groups, each group with 10 animals, so that the average tumor volume of all the groups was similar. Animals were treated from the day of randomization (Day 1). Tumor dimensions (length and diameter) were measured for all animals three times per week, including the termination day of the study. In addition, throughout the study period, mice were monitored daily for clinical conditions. […] Portions of the blood samples were used for blood analysis and clinical chemistry. Lung, heart, liver, spleen, and kidneys were also collected and histopathological analysis was performed.

[3] = Beagle, dog, iv, 0.5 mg/kg, Plasma concentration
[4] = Beagle, dog, po, 5 mg/kg, Mean conc.
[5] = Beagle, dog, po, 5 mg/kg, Plasma concentration
[6] = beagle, dog, iv, 0.5 mg/kg, Mean conc.
[7] = beagle, dog, iv, 0.5 mg/kg, Plasma concentration
[8] = beagle, dog, po, 5 mg/kg, Plasma concentration

concentration at 0.25 h [1, 3]: 723 ng/mL | concentration at 0.5 h [1, 3]: 501 ng/mL | concentration at 1 h [1, 3]: 397 ng/mL | concentration at 2 h [1, 3]: 203 ng/mL | concentration at 3 h [1, 3]: 265 ng/mL | concentration at 5 h [1, 3]: 67.7 ng/mL | concentration at 8 h [1, 3]: 44.4 ng/mL | concentration at 10 h [1, 3]: 19.8 ng/mL | Plasma concentration ([1]; Beagle, dog, po, 5 mg/kg, 0.5 h): 2776 ng/mL | Plasma concentration ([1]; Beagle, dog, po, 5 mg/kg, 1 h): 2706 ng/mL | Plasma concentration ([1]; Beagle, dog, po, 5 mg/kg, 2 h): 2055 ng/mL | Plasma concentration ([1]; Beagle, dog, po, 5 mg/kg, 3 h): 2510 ng/mL | Plasma concentration ([1]; Beagle, dog, po, 5 mg/kg, 5 h): 429 ng/mL | concentration at 0.25 h [1, 4]: 1100 ng/mL | concentration at 0.5 h [1, 4]: 1880 ng/mL | concentration at 1 h [1, 4]: 1890 ng/mL | concentration at 2 h [1, 4]: 1520 ng/mL | concentration at 3 h [1, 4]: 1960 ng/mL | concentration at 5 h [1, 4]: 414 ng/mL | concentration at 8 h [1, 4]: 150 ng/mL | concentration at 10 h [1, 4]: 128 ng/mL | concentration at 24 h [1, 4]: 16.9 ng/mL | concentration at 0.5 h [1, 5]: 1870 ng/mL | concentration at 1 h [1, 5]: 1660 ng/mL | concentration at 2 h [1, 5]: 1480 ng/mL | concentration at 3 h [1, 5]: 1810 ng/mL | concentration at 5 h [1, 5]: 442 ng/mL | Dog Cl ([1]; beagle): 3.9 mL/min/kg | bioavailability ([1]; beagle, dog, Absolute oral bioavailability): 50.6% | clearance ([1]; beagle, dog, Dog Cl (ml/min/kg)): 3.92 mL/min/kg | bioavailability ([1]; beagle, dog, Dog F % (absolute oral bioavailability)): 43.4% | AUC0-t ([1]; beagle, dog, iv, 0.5 mg/kg): 1330 ng·h/mL | AUC(0-inf) ([1]; beagle, dog, iv, 0.5 mg/kg): 1350 ng·h/mL | Cmax ([1]; beagle, dog, iv, 0.5 mg/kg): 2040 ng/mL | Vd ([1]; beagle, dog, iv, 0.5 mg/kg): 0.00072 L | Plasma concentration ([1]; beagle, dog, iv, 0.5 mg/kg, 0.25 h): 843 ng/mL | Plasma concentration ([1]; beagle, dog, iv, 0.5 mg/kg, 0.5 h): 548 ng/mL | Plasma concentration ([1]; beagle, dog, iv, 0.5 mg/kg, 1 h): 405 ng/mL | clearance ([1]; beagle, dog, iv, 0.5 mg/kg, Cl): 0.0065 mL/min | half-life ([1]; beagle, dog, iv, 0.5 mg/kg, Half life): 2.15 h | concentration at 0.25 h [1, 6]: 851 ng/mL | concentration at 0.5 h [1, 6]: 641 ng/mL | concentration at 1 h [1, 6]: 508 ng/mL | concentration at 2 h [1, 6]: 297 ng/mL | concentration at 3 h [1, 6]: 421 ng/mL | concentration at 5 h [1, 6]: 109 ng/mL | concentration at 8 h [1, 6]: 44.1 ng/mL | concentration at 10 h [1, 6]: 27.6 ng/mL | concentration at 0.25 h [1, 7]: 987 ng/mL | concentration at 0.5 h [1, 7]: 874 ng/mL | concentration at 1 h [1, 7]: 721 ng/mL | concentration at 24 h [1, 7]: 15.8 ng/mL | AUC0-t ([1]; beagle, dog, po, 3 mg/kg): 2570 ng·h/mL | AUC(0-inf) ([1]; beagle, dog, po, 3 mg/kg): 2690 ng·h/mL | Cmax ([1]; beagle, dog, po, 3 mg/kg): 685 ng/mL | Tmax ([1]; beagle, dog, po, 3 mg/kg): 4 h | half-life ([1]; beagle, dog, po, 3 mg/kg, Half life): 2.11 h | Vdss ([1]; beagle, dog, po, 5 mg/kg): 0.83 L/kg | peak concentration ([1]; beagle, dog, po, 5 mg/kg): 2068 ng/mL | t1/2 (hr), oral half-life ([1]; beagle, dog, po, 5 mg/kg): 3.41 h | time of peak concentration post dose ([1]; beagle, dog, po, 5 mg/kg): 1.5 h | concentration at 0.5 h [1, 8]: 999 ng/mL | concentration at 1 h [1, 8]: 1310 ng/mL | concentration at 2 h [1, 8]: 1020 ng/mL | concentration at 3 h [1, 8]: 1560 ng/mL | concentration at 5 h [1, 8]: 370 ng/mL | concentration at 8 h [1, 8]: 107 ng/mL | concentration at 10 h [1, 8]: 158 ng/mL | half-life ([1]; beagle, dog, po, 5 mg/kg, t1/2 (hr), oral half-life): ~3.4 h
Compound: O=C(O)c1ccc(-c2ccc(/C=C3\SC(=S)N(Cc4ccccc4)C3=O)o2)cc1 [LA1 choline salt]

concentration at 0.5 h ([2]; exposure in blood at end of study): 383 ± 450 ng/mL | concentration at 0.5 h ([2]; exposure in tumor at end of study): 24.7 ± 17.6 ng/mL
Compound: O=C(O)c1ccc(-c2ccc(/C=C3\SC(=S)N(Cc4ccccc4)C3=O)o2)cc1 [LA1, (Z)-4-(5-((3-benzyl-4-oxo-2-thioxothiazolidin-5-ylidene)methyl)furan-2-yl)benzoic acid]
